“Also recorded” adds a separate entry of the source.
Columns and labels:
[1] = tested on: rat βGK promoter; experiment: On-line monitoring of βGK promoter-driven GFP expression (prβGK.GFP) in transfected HIT-T15 cells, islet cells and islets; assay type: cell-based, hamster (HIT-T15), rat (islet cells); conditions: for effect of inhibitor on insulin-stimulated βGK transcription / promoter activity: 5 mU/ml insulin 5 min, 150 nM BIM, 20 μM PD98059, 10 μM PD169316, 100 μM HNMPA-(AM)3, 400 nM AC, FIG. 5; for effect of inhibitor on insulin-stimulated βGK transcription / promoter activity / effect of inhibitor on insulin-stimulated βGK promoter activity (GFP) in the same co-transfected cell: 25 μM LY294002, 10 nM rapamycin; for effect of inhibitor on insulin-stimulated βGK promoter activity (GFP) in the same co-transfected cell: 5 mU/ml insulin, 400 nM AC, 100 μM HNMPA-(AM)3
Text: Construction of prIns1.GFP has been described earlier (Leibiger et al., 1998a). Vector prIns1.DsRed was generated by exchanging the EGFP-expression cassette versus the DsRed-expression cassette obtained from pDsRed1-1 (Clontech). Plasmid prβGK.GFP (i.e. prβGK-278.GFP) was generated by exchanging the CAT-SV40pA-expression cassette of prβGK-278.CAT (Leibiger et al., 1994a) versus the EGFP-bGHpA-expression cassette obtained from pRcCMVI.GFP (Moede et al., 1999). […] All vector constructions were verified by DNA sequence analysis. […] Expression constructs pCMV5.PKBα, pCMV5.PKBαΔ308/437, pCMV5.PDK1 and pCMV5.PDK1-antisense were kindly provided by Drs. P. Cohen and D. R. Alessi (MRC Phosphorylation Unit, University of Dundee, UK).
HIT cells were reported to show glucose responsiveness at subphysiological concentrations between 0.1 and 2 mM (Sharma et al., 1995). HIT cells were grown in RPMI 1640 medium supplemented with 100 units/ml penicillin, 100 μg/ml streptomycin, 2 mM glutamine and 10% fetal calf serum at 5% CO2 and 37° C. Pancreatic islets were isolated from normally fed male Wistar rats and from mice by collagenase digestion. Isolated islets were incubated overnight at 5% CO2 and 37° C. in RPMI 1640 medium, supplemented as described above. Transfection of HIT-T15 and islet cells was performed overnight by the lipofectamine technique in RPMI 1640 medium, without serum and antibiotics. For on-line monitoring, cells were grown and transfected on 24-mm glass coverslips. Following transfection, HIT cells were cultured for 12-18 h in RPMI 1640 medium containing 0.1 mM glucose, 10% fetal calf serum and supplemented as above. Before stimulation, islets and islet cells were incubated for 2 h in RPMI 1640 medium, supplemented as above but containing 3 mM glucose. All expression constructs were prepared using the Qiagen Plasmid Maxi Kit (Qiagen), except those used to produce the adenoviruses which where purified by ultracentrifugation via a CsCI-gradient (as described in Sambrook et al, 1989).
Islets were transduced with Ad.rβGK.GFP or Ad.CMV.GFP by incubating 50 islets with 1 ml virus-containing medium for 90 min at 37° C. and 5% CO2. Following transduction, islets were washed 3 times with PBS and cultured further in RPMI 1640 medium. Islets were stimulated 40-72 h after transduction, as described below and analyzed by laser-scanning confocal microscopy.
All experiments were performed in RPMI 1640 medium, supplemented as above. Protein kinase inhibitors, antibodies or nifedipine were added to the culture medium 30 min prior to stimulation and were kept in the medium throughout stimulation. After stimulation islets, islet cells and HIT cells were cultured further at substimulatory glucose concentrations (0.1 mM for HIT cells and 3 mM for islets and islet cells). For RNA-analysis, islets and cells were harvested 60 min after start of stimulation, if not indicated otherwise. For analysis of protein kinase activities or tyrosine phosphorylation, cells were harvested immediately following stimulation.
(§1) Detection of fluorescence by digital imaging fluorescence microscopy was performed as described previously (Leibiger et al., 1998a; Leibiger et al., 1998b). Briefly, transfected cells were grown on 24-mm glass coverslips. After stimulation the coverslips were placed into a perifusion chamber which was mounted on an inverted microscope (Zeiss Axiovert 135TV). Temperature was kept at 37° C. and the cells were perfused with RPMI 1640 medium. The objective lens used was a Zeiss-Fluar ×40/1.30 oil Imm Korr. Fluorescence imaging was performed with a cooled charged-coupled device camera (CH250 with KAF 1400, Photometrics, Tucson, Ariz.) connected to an imaging system (Inovision) with fluorescence excitation from a SPEX fluorolog-2 CM1T11I spectrofluorometer (Spex Industries).

[2] = tested on: rat insulin-I promoter; experiment: Insulin promoter-driven DsRed expression in co-transfected human islet cells; assay type: cell-based
Description: Data are presented as the ratio of fluorescence obtained at minutes 240 and 60 and represent mean values ±S.E. (n=11).
as §1, with “Industries). […]” for “Industries).”
On-line monitoring was initiated 60 min following the start of stimulation and the 60-min value of GFP- or DsRed-fluorescence was set to 1.0. Cells to be monitored were chosen randomly at minute 60 from six fields of vision and fluorescence was monitored up to minute 240. By overlaying the fluorescence and phase-contrast images, the position of cells on the coverslip could be checked. Fluorescence intensity was calculated by using the ISee-software for UNIX (Inovision Corporation).

[3] = tested on: PKB/c-Akt; experiment: PKB/c-Akt Ser473 phosphorylation and PKB activity in HIT cells; assay type: cell-based, hamster
Description: Phosphorylated PKB/c-Akt was analyzed by employing the PhosphoPlus Akt(Ser473) Antibody Kit (New England Biolabs) according to the manufacturer's instructions. Briefly, HIT cells were cultured as described above. […] Following centrifugation of the lysate for 20 min at 14,000×g and 4° C., aliquotes of the supernatant containing 200 μg protein were separated by SDS-PAGE over a 7.5% polyacrylamide gel. Proteins were electro-transferred onto PVDF-membrane (Immobilon-P, Millipore) overnight at stabilized 125 mA. Immunoblotting was performed with either rabbit polyclonal Phospho-Akt(Ser473) antibody or with rabbit polyclonal […] antibody and HRP-conjugated secondary antibodies. For detection the membrane was incubated with LumiGLO containing peroxide and exposed to X-ray film.
Analysis of PKB/Akt activity was performed employing the Akt1-PKBα e Immunoprecipitation Kinase Assay Kit (Upstate Biotech.) according to the manufacturer's instructions. Lysates of HIT cells containing 1 mg of protein were subjected to immunoprecipitation. The immunoprecipitate was used for PKB/Akt kinase assay using γ[^32P]-ATP and Akt/SGK-specific substrate peptide. Phosphorylated substrates were blotted onto phosphocellulose P81 paper and analyzed by LSC.

Compound | effect of inhibitor on insulin-stimulated βGK transcription / promoter activity [1] | effect of inhibitor on insulin-stimulated βGK promoter activity (GFP) in the same co-transfected cell [1] | effect of inhibitor on insulin-stimulated insulin gene expression ([2]; 400 nM AC, 10 nM rapamycin, low concentrations: 50 nM wortmannin, 25 μM LY 294002 (FIG. 15)) | effect on glucose-induced activation of PKB ([3]; FIG. 7E, PKB activity 10 min after start of glucose stimulation) | time following stimulation at which PKB activation (Ser473 phosphorylation) was observed ([3]; 16.7 mM glucose or 5 mU insulin/ml at substimulatory glucose) [min] | βGK promoter-driven GFP fluorescence upon insulin stimulation ([1]; 5 mU insulin per ml for 5 min, substimulatory glucose) | amount of exogenous insulin required to gain an effect on βGK promoter activation ([1]; transfected HIT-T15 cells, supplemented culture medium (FIG. 4B)) [μU per ml] | insulin promoter-driven DsRed expression upon insulin stimulation ([2]; 5 mU/ml insulin for 5 min, sub-stimulatory glucose)
autocamtide-2 related inhibitory peptide | altered neither | no effect | sensitive |  |  |  |  | 
CC(=O)OCOC(c1ccc2ccccc2c1)P(=O)(OCOC(C)=O)OCOC(C)=O (stereo not shown) [HNMPA-(AM)3] | sensitive | abolished |  | abolished |  |  |  | 
insulin |  |  |  |  | 2 | increase; also recorded: elevation | 20 | up-regulation
